Experiments:
K-Ras-wildtype = K-Ras-wildtype (Homo sapiens, UniProt P01116); experiment: K-Ras-wildtype activation by SOS1 (wild-type KRAS activation by SOS1cat assay, HTRF); format: biochemical; conditions: mean, SOS1cat mediated loading of wild-type GST-KRAS-GDP with fluorescent GTP analogue, read-out: K-Ras-wildtype activation by SOS1 IC50 - [mol/l] (mean)
Experimental: (§1) Preparation of test compound dilutions. A 100-fold concentrated solution of the test compound (50 nL) in DMSO was transferred to microtiter test plates (384 or 1,536 wells, Greiner Bio-One, Germany) using either a Hummingbird liquid handler (Digilab, MA, USA) or an Echo acoustic system (Labcyte, CA, USA). Plates were sealed with adhesive foil or heat-sealed and stored at −20 C until use. Serial dilutions of test compounds were prepared in 100% DMSO using a Precision Pipetting System (BioTek, USA).
(§2) Measurement and evaluation of inhibition data, calculation of IC50 values. Homogeneous time-resolved fluorescence (HTRF) was measured with a PHERAstar reader (BMG, Germany) using the HTRF module (excitation: 337 nm; emission 1: 620 nm, emission 2: 665 nm). The ratio of the emissions at 665 and 620 nm was used as the specific signal for further evaluation. The data were normalized using the controls: DMSO=0% inhibition, inhibition control wells with inhibitor control solution=100% inhibition. Compounds were tested in duplicates at up to 11 concentrations (e.g. 20 μM, 5.7 μM, 1.6 μM, 0.47 μM, 0.13 μM, 38 nM, 11 nM, 3.1 nM, 0.89 nM, 0.25 nM and 0.073 nM). IC50 values were calculated using a four-parameter fit, with a commercial software package (Genedata Screener, Switzerland).
(§3) KRAS^G12C activation by SOS1^cat assay (“On-assay”). This assay quantifies SOS1^cat mediated loading of KRAS^G12C-GDP with a fluorescent GTP analogue. Detection of successful loading was achieved by measuring resonance energy transfer from anti-GST-terbium (FRET donor) bound to GST-KRAS^G12C to the loaded fluorescent GTP analogue (FRET acceptor). The fluorescent GTP analogue EDA-GTP-DY-647P1 [2′/3′-O-(2-aminoethyl-carbamoyl)guanosine-5′-triphosphate labelled with DY-647P1 (Dyomics GmbH, Germany)] was synthesized by Jena Bioscience (Germany) and supplied as a 1 mM aqueous solution. A KRAS^G12C working solution was prepared in assay buffer [10 mM HEPES pH 7.4 (AppliChem), 150 mM NaCl (Sigma), 5 mM MgCl2 (Sigma), 1 mM DTT (Thermo Fisher), 0.05% BSA Fraction V pH 7.0 (ICN Biomedicals), 0.0025% (v/v) Igepal (Sigma)] containing GST-KRAS^G12C (final concentration in assay 50 nM) and anti-GST-terbium (Cisbio, France) (final concentration in assay 1 nM). A SOS1^cat working solution was prepared in assay buffer containing SOS1^cat (final concentration 10 nM) and EDA-GTP-DY-647P1 (final concentration 100 nM). An inhibitor control solution was prepared in assay buffer containing EDA-GTP-DY-647P1 (final concentration 100 nM) without SOS1^cat. All steps of the assay were performed at 20° C. A volume of 3 μL of the KRAS^G12C working solution was added to all wells of the test plate using a Multidrop dispenser (Thermo LabSystems). After 15 min, 2 μL of the SOS1^ct working solution was added to all wells, except for the inhibitor control solution wells. After 30 min incubation, HTRF was measured.
(§4) G12D and Wild-type KRAS activation by SOS1cat assays. These assays quantify human SOS1^cat mediated loading of wild-type GST-KRAS^WT-GDP or GST-KRAS^G12D-GDP with a fluorescent GTP analogue. The assay was performed similarly to the KRAS^G12C activation by SOS1^cat assay with the following differences: final concentration of SOS1^cat of 60 nM and final incubation time before measurement of 10 min for KRAS^G12D assay, final concentration of SOS1^cat of 20 nM and final incubation time before measurement of 15 min for wild-type KRAS assay, respectively. GST-KRAS^G12C was replaced by GST-KRAS^WT or GST-KRAS^G12D, respectively, also at 50 nM final concentration.
Wild-type KRAS activation by SOS1^cat assay. This assay quantifies human SOS1^cat mediated loading of wild-type GST-KRAS-GDP with a fluorescent GTP analogue. The assay was performed similarly to the KRAS^G12D activation by SOS1^cat assay just by replacement of GST-KRAS^G12D by wild-type GST-KRAS while concentrations of all components and incubation times were the same.

K-Ras G12D = K-Ras G12D (Homo sapiens, UniProt P01116, G12D); experiment: K-Ras G12D activation by SOS1 (KRAS G12D activation by SOS1cat assay, HTRF); format: biochemical; conditions: mean, SOS1cat mediated loading of GST-KRAS G12D-GDP with fluorescent GTP analogue, read-out: K-Ras G12D activation by SOS1 IC50 - [mol/l] (mean)
Experimental: as §1, §2, §3, §4
KRAS^G12D activation by SOS1^cat assay (“On-assay”). This assay quantifies SOS1^cat mediated loading of KRAS^G12D-GDP with a fluorescent GTP analogue. Detection of successful loading was achieved by measuring resonance energy transfer from anti-GST-terbium (FRET donor) bound to GST-KRAS^G12D to the loaded fluorescent GTP analogue (FRET acceptor).

Chain of K-Ras-wildtype (P01116 1-188 isoform P01116-2): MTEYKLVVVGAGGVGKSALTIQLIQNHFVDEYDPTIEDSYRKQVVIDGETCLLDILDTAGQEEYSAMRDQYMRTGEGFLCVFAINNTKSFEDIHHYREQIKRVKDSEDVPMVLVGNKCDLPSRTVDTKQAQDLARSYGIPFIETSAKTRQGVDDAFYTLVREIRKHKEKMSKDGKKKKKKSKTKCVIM
Chain of K-Ras G12D (P01116 1-188 isoform P01116-2 G12D): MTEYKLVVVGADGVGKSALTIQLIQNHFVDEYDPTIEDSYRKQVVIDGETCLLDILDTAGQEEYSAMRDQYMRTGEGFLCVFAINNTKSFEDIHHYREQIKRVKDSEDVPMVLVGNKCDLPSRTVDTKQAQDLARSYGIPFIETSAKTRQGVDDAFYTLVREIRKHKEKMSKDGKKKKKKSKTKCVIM

Row | SMILES | IC50 (K-Ras-wildtype) | IC50 (K-Ras G12D)
1 | C#Cc1c(Cl)ccc2cc(O)cc(Oc3nc4c(N5CC6CCC(C5)N6)nc(OC[C@@]56CCCN5C[C@H](F)C6)nc4s3)c12 [Example 23, 6-chloro-4-{[7-(3,8-diazabicyclo[3.2.1]octan-3-yl)-5-{[(2R,7aS)-2-fluorotetrahydro-1H-pyrrolizin-7a(5H)-yl]methoxy}[1,3]thiazolo[5,4-d]pyrimidin-2-yl]oxy}-5-ethynylnaphthalen-2-ol] | 95 nM | 4.9 nM
2 | C#Cc1c(F)ccc2cc(O)cc(Oc3nc4c(N5CC6CCC(C5)NC6)nc(OC[C@@]56CCCN5C[C@H](F)C6)nc4s3)c12 (single isomer, unassigned) [Example 21, 4-[(7-[(1S*,5S*)-3,6-diazabicyclo[3.2.2]nonan-3-yl]-5-{[(2R,7aS)-2-fluorotetrahydro-1H-pyrrolizin-7a(5H)-yl]methoxy}[1,3]thiazolo[5,4-d]pyrimidin-2-yl)oxy]-5-ethynyl-6-fluoronaphthalen-2-ol] | 182 nM | 219 nM
3 | Cn1c(Oc2cc(O)cc3ccccc23)nc2nc(OCC34CCCN3CCC4)nc(N3CC4CCC(C3)N4)c21 [Example 18, 4-({6-(3,8-diazabicyclo[3.2.1]octan-3-yl)-7-methyl-2-[(tetrahydro-1H-pyrrolizin-7a(5H)-yl)methoxy]-7H-purin-8-yl}oxy)naphthalen-2-ol] | > 20000 nM | 15300 nM
4 | C#Cc1c(F)ccc2cc(O)cc(Oc3nc4c(N5CC6COCC(C5)N6)nc(OC[C@@]56CCCN5C[C@H](F)C6)nc4s3)c12 [Example 12, 5-ethynyl-6-fluoro-4-{[5-{[(2R,7aS)-2-fluorotetrahydro-1H-pyrrolizin-7a(5H)-yl]methoxy}-7-(3-oxa-7,9-diazabicyclo[3.3.1]nonan-7-yl)[1,3]thiazolo[5,4-d]pyrimidin-2-yl]oxy}naphthalen-2-ol] | 15.8 nM | 23.7 nM
5 | C#Cc1c(F)ccc2cc(O)cc(Oc3nc4c(N5CC6CCC(C5)NC6)nc(OC[C@@]56CCCN5C[C@H](F)C6)nc4s3)c12 (single isomer, unassigned) [Example 20, 4-[(7-[(1R*,5R*)-3,6-diazabicyclo[3.2.2]nonan-3-yl]-5-{[(2R,7aS)-2-fluorotetrahydro-1H-pyrrolizin-7a(5H)-yl]methoxy}[1,3]thiazolo[5,4-d]pyrimidin-2-yl)oxy]-5-ethynyl-6-fluoronaphthalen-2-ol] | 405 nM | 8.11 nM
6 | C#Cc1c(F)ccc2cc(O)cc(Oc3nc4nc(OCC56CCCN5CCC6)nc(N5CC6CCC(C5)N6)c4n3C)c12 [Example 22, 4-({6-(3,8-diazabicyclo[3.2.1]octan-3-yl)-7-methyl-2-[(tetrahydro-1H-pyrrolizin-7a(5H)-yl)methoxy]-7H-purin-8-yl}oxy)-5-ethynyl-6-fluoronaphthalen-2-ol] | > 20000 nM | 89.5 nM
7 | Oc1cc(Nc2nc3c(N4CC5CCC(C4)N5)nc(OC[C@@]45CCCN4C[C@H](F)C5)nc3s2)c2ccccc2c1 [Example 28, 4-{[7-(3,8-diazabicyclo[3.2.1]octan-3-yl)-5-{[(2R,7aS)-2-fluorotetrahydro-1H-pyrrolizin-7a(5H)-yl]methoxy}[1,3]thiazolo[5,4-d]pyrimidin-2-yl]amino}naphthalen-2-ol] | > 20000 nM | 1410 nM
8 | Oc1cc(Oc2nc3c(N4CC5CCC(C4)N5)nc(OCC45CCCN4CCC5)nc3s2)c2ccccc2c1 [Example 1, 4-{[7-(3,8-diazabicyclo[3.2.1]octan-3-yl)-5-(tetrahydro-1H-pyrrolizin-7a(5H)-ylmethoxy)[1,3]thiazolo[5,4-d]pyrimidin-2-yl]oxy}-2-naphthol] | ≥ 20000 nM | 1000 nM
9 | C#Cc1c(F)ccc2cc(O)cc(Cc3nc4c(N5CC6CCC(C5)N6)nc(OC[C@@]56CCCN5C[C@H](F)C6)nc4s3)c12 [Example 32, 4-{[7-(3,8-diazabicyclo[3.2.1]octan-3-yl)-5-{[(2R,7aS)-2-fluorotetrahydro-1H-pyrrolizin-7a(5H)-yl]methoxy}[1,3]thiazolo[5,4-d]pyrimidin-2-yl]methyl}-5-ethynyl-6-fluoronaphthalen-2-ol] | 99.8 nM | 3.95 nM
10 | Cn1c(Oc2cc(O)cc3ccccc23)nc2c(N3CC4CCC(C3)N4)nc(OCC34CCCN3CCC4)nc21 [Example 9, 4-({6-(3,8-diazabicyclo[3.2.1]octan-3-yl)-9-methyl-2-[(tetrahydro-1H-pyrrolizin-7a(5H)-yl)methoxy]-9H-purin-8-yl}oxy)naphthalen-2-ol] | > 20000 nM | > 20000 nM
11 | C#Cc1c(F)ccc2cc(O)cc(Oc3nc4c(N5C[C@H]6CC(F)[C@@H](C5)N6)nc(OC[C@@]56CCCN5C[C@H](F)C6)nc4s3)c12 (single isomer, unassigned) [Example 25, 5-Ethynyl-6-fluoro-4-[(7-[(1R*,5R*)-6-fluoro-3,8-diazabicyclo[3.2.1]octan-3-yl]-5-{[(2R,7aS)-2-fluorotetrahydro-1H-pyrrolizin-7a(5H)-yl]methoxy}[1,3]thiazolo[5,4-d]pyrimidin-2-yl)oxy]naphthalen-2-ol] | 69.9 nM | 18.7 nM
12 | C#Cc1c(F)ccc2cc(O)cc(Oc3nc4c(N5C[C@H]6CC[C@@H](C5)N6)nc(OCC56CCCN5CCC6)nc4s3)c12 [Example 5, 4-({7-[(1R,5S)-3,8-diazabicyclo[3.2.1]octan-3-yl]-5-[(tetrahydro-1H-pyrrolizin-7a(5H)-yl)methoxy][1,3]thiazolo[5,4-d]pyrimidin-2-yl}oxy)-5-ethynyl-6-fluoronaphthalen-2-ol] | 69.1 nM | 3.79 nM
13 | C#Cc1c(F)ccc2cc(O)cc(Oc3nc4c(N5CC6COCC(C5)N6)nc(OCC56CCCN5CCC6)nc4s3)c12 [Example 13, 5-ethynyl-6-fluoro-4-({7-(3-oxa-7,9-diazabicyclo[3.3.1]nonan-7-yl)-5-[(tetrahydro-1H-pyrrolizin-7a(5H)-yl)methoxy][1,3]thiazolo[5,4-d]pyrimidin-2-yl}oxy)naphthalen-2-ol] | 15.3 nM | 25.6 nM
14 | Oc1cc(Oc2nc3c(N4CC5CCC(C4)N5)nc(OCC45CCCN4CCC5)nc3[nH]2)c2ccccc2c1 [Example 10, 4-({6-(3,8-diazabicyclo[3.2.1]octan-3-yl)-2-[(tetrahydro-1H-pyrrolizin-7a(5H)-yl)methoxy]-9H-purin-8-yl}oxy)naphthalen-2-ol] | > 20000 nM | > 20000 nM
15 | C#Cc1c(F)ccc2cc(O)cc(Oc3nc4c(N5C[C@H]6CC(F)[C@@H](C5)N6)nc(OC[C@@]56CCCN5C[C@H](F)C6)nc4s3)c12 (single isomer, unassigned) [Example 24, 5-Ethynyl-6-fluoro-4-[(7-[(1R*,5R*)-6-fluoro-3,8-diazabicyclo[3.2.1]octan-3-yl]-5-{[(2R,7aS)-2-fluorotetrahydro-1H-pyrrolizin-7a(5H)-yl]methoxy}[1,3]thiazolo[5,4-d]pyrimidin-2-yl)oxy]naphthalen-2-ol] | 24.1 nM | 26.7 nM
